Test [1] deals with IL-23 (p19/p40). The test is described as follows: IL23-p19 ELISA, dendritic cells (DC differentiated from human PBMC, IFNγ primed), LPS stimulated. Conditions: Dendritic cell, human PBMC-derived dendritic cells, 1 h compound pre-incubation, LPS 1 μg/ml 18 hours, 10 pt. It counts as cell-based. The protocol:
Compound Screening Using DC Cells
I. Differentiation of PBMC's to DC Cells:
After 2 hours, the media including floating cells was aspirated out carefully and 12 ml of fresh RPMI media (10% FBS) containing GMCSF (100 ng/ml) and IL4 (20 ng/ml) was added, and the flask was kept in a 37° C. incubator for 7 days.
After 3 days, fresh GMCSF (100 ng/ml) and IL4 (20 ng/ml) were added to the flask and the incubation continued. After 7 days, the fully differentiated cells were harvested by spinning down (1200 rpm/5 min) and aspirating the media. The cells were suspended in fresh RPMI media (10% FBS) containing 50 ng/ml IFNγ (1000 U/ml) and then plated (50K/well in 100 μl) onto a white clear bottom 96 well plate and left in a 37° C. incubator for 24 hours.
II. Addition of Compounds:
After 24 hours incubation, 100 μl of RPMI media was added containing 2× concentrated test compound per well to the above cell-culture media (final concentration becomes 1×) and the plates were pre-incubated for 1 hour at 37° C. before stimulating with LPS.
The mixture was shaken and incubated the plates at 37° C. for an additional 18 hours.
155 μl of the supernatant was harvested from each well carefully (without the tip touching the bottom of the well) and to the remaining 50 μl/well of the cell culture plate was added 50 μl of Cell Titer Glo reagent. The mixture was incubated for 1-2 minutes on a shaker and the plate was read for luminescence intensity to determine the compound cytotoxicity. The cell culture supernatant collected above was used to carry out IL23 ELISA (65 μl—Supernatant) and IL10 ELISA (90 μl—Supernatant) as described below.
Human IL-23 (p19/p40) ELISA Protocol (e-Biosciences)
To 10.5 ml PBS add 50 μl of anti-IL23 (p19) was added capture antibody (2.5 μg/ml). The mixture was mixed well and 100 μl of the coating solution was added to each well of the 96 well white plates from Pierce. The wells were covered and incubated overnight at 4° C.
The anti-IL23 (p19)-antibody-coated plates were washed 2× using TBST (use plate washer) and blocked using 200 μl of 0.5% Casein for 1.5-2 hours at room temperature with shaking.
Addition of Supernatant and Detection:
The plates were washed 2× using TBST and the supernatant was transferred (65 μl/well) to the above pre-blocked/IL23(p19)-antibody-coated 96 well plate, and incubated at room temperature for 1.5 hours with shaking.
The plates were washed 4× using TBST (plate washer) and 100 μl/well detection antibody solution prepared from 2 μl of biotin labeled anti-IL-12 (p40/p70) antibody in 11 ml 1% BSA/PBS solution (1-5000 dilution) was added. The plates were incubated for 1 hour with shaking at Room temperature.
Again, the plates were washed 4× with TBST and 100 μl of HRP labeled Streptavidin (R&D Systems) solution (10 μl/10 ml 1% BSA solution) was added, and the plates were incubated at room temperature for another 45 minutes with shaking.
After 45 minutes, the plates were washed with TBST 4× and 100 μl/well Super Signal ELISA Pico Chemiluminescent Substrate from Pierce (3.5 ml A+3.5 ml B+3.5 ml MQ water) was added. The plates were shaken for 1-2 minutes then read on a plate reader.
On the technique in general: An ELISA detects its analyte on a solid surface through an enzyme-linked reagent.

The subject of test [2] is IL-23p19. The test is described as follows: LPS Induced IL23p19 in THP-1 Cells (with IFNγ Primed) Assay. The following applies: Homo sapiens, THP-1, THP-1 cells, IFNγ (50 ng/mL) primed, 1 hour compound pre-incubation, LPS 1 ug/mL 18 hours, 10 pt; read-out: IL23-p19 ELISA, THP1-IFNy, LPS, 10 pt EC50. It counts as cell-based, human. The protocol:
LPS Induced IL23p19 in THP-1 Cells (with IFNγ Primed) Assay
Method THP-1 Cells Stimulation:
On day 1, 50K/well THP-1 cells were seeded and primed with IFNγ (50 ng/mL) in 384-well plates for about 18 hours in RPMI media with 10% FBS. […] 50 μL/well 2× compound was added to 50 μL/well THP-1 cells (with IFNγ primed) in duplicate in 384 well tissue culture plates. […] Day 3, after stimulation for 18 hours at 37° C., 5% CO2, the assay plate was centrifuged and 70 μL/well supernatant was harvested. IL-23p19 protein in 70 μL/well of supernatant was measured by sandwich ELISA, and 25 μl/well Cell Titer Glo reagent was added to the remaining cells to measure compound toxicity.
Human IL-23p19 Sandwich ELISA:
Maxisorp immuno ELISA plates were pre-coated with 25 μL/well of anti-IL-23p19 capture antibody (2.5 ug/mL) in PBS overnight at room temperature. After washing with 1×PBST, the plates were blocked using 100 μL/well of 1% BSA in PBS for 2 hours at room temperature. The plates were washed three times with 1×PBST and 70 μL/well supernatant were added. The plates were incubated at room temperature for 2 hours with shaking and washed three times with 1×PBST. 25 μL/well of biotin labeled anti-IL-12(p40/p70) detection antibody (100 ng/mL) in PBS with 1% BSA was added and the plates were incubated at room temperature for 2 hours with shaking. After washing three times with 1×PBST, 25 μL/well of streptavidin-HRP (1:200) in PBS with 1% BSA was added and the plates were incubated at room temperature for 20 minutes with shaking. The plates were washed three times with 1×PBST and 25 μL/well of Super Signal ELISA Pico Chemiluminescent Substrate were added. The plates were read with a luminometer, and the chemiluminescence values were entered into Athena (Rigel) for curve fitting, EC50 calculation, and database storage.

The structures appear in SMILES notation. Counter-ions that a name gives are not always drawn.

For `Cn1cc(NC(=O)c2cccc(-c3cccnc3)n2)c(-c2ccccn2)n1` [Compound I-2, N-(1-methyl-3-(pyridin-2-yl)-1H-pyrazol-4-yl)-[2,3′-bipyridine]-6-carboxamide], the 50% effective concentration (EC50) – broadly, the concentration needed to bring the measured effect to its halfway point – in test [1] was found to be 2.72 µM; in test [2], 1.26 µM.
The like results for `Cn1cc(NC(=O)c2cccc(-c3ccn[nH]3)n2)c(-c2ccccn2)n1` [Compound I-6, N-(1-methyl-3-(pyridin-2-yl)-1H-pyrazol-4-yl)-6-(1H-pyrazol-5-yl)picolinamide] were, in that order, 0.162 µM and 0.536 µM.
The like results for `Cc1cc(-c2cccc(C(=O)Nc3cn(C)nc3-c3ccccn3)n2)[nH]n1` [Compound I-7, 6-(3-methyl-1H-pyrazol-5-yl)-N-(1-methyl-3-(pyridin-2-yl)-1H-pyrazol-4-yl)picolinamide] were, in that order, 0.354 µM and 0.533 µM.
On the same counts, the results for `Cn1cc(-c2cccc(C(=O)Nc3cn(C)nc3-c3ccccn3)n2)cn1` [Compound I-8, 6-(1-methyl-1H-pyrazol-4-yl)-N-(1-methyl-3-(pyridin-2-yl)-1H-pyrazol-4-yl)picolinamide] are 2.42 µM and 1.7 µM.
Consider `Cn1cc(NC(=O)c2cccc(-c3cn[nH]c3)n2)c(-c2ccccn2)n1` [Compound I-9, N-(1-methyl-3-(pyridin-2-yl)-1H-pyrazol-4-yl)-6-(1H-pyrazol-4-yl)picolinamide], for which the EC50 turned out to be 0.178 µM in test [1] and 0.281 µM in test [2].
In the case of `Cn1cc(NC(=O)c2cccc(-c3cc[nH]c3)n2)c(-c2ccccn2)n1` [Compound I-11, N-(1-methyl-3-(pyridin-2-yl)-1H-pyrazol-4-yl)-6-(1H-pyrrol-3-yl)picolinamide], the values for the half-maximal effective concentration (EC50) in test [1] and in test [2] were 4.12 µM and 5.9 µM, respectively.
The like results for `Cc1cncc(-c2cccc(C(=O)Nc3cn(C)nc3-c3ccccn3)n2)c1` [Compound I-12, 5′-methyl-N-(1-methyl-3-(pyridin-2-yl)-1H-pyrazol-4-yl)-[2,3′-bipyridine]-6-carboxamide] were, in that order, 0.106 µM and 0.25 µM.
On the same counts, the results for `Cn1cc(NC(=O)c2cccc(-c3cncc(C4CC4)c3)n2)c(-c2ccccn2)n1` [Compound I-13, 5′-cyclopropyl-N-(1-methyl-3-(pyridin-2-yl)-1H-pyrazol-4-yl)-[2,3′-bipyridine]-6-carboxamide] are 0.531 µM and 1.34 µM.
On the same counts, the results for `Cc1ccc(-c2cccc(C(=O)Nc3cn(C)nc3-c3ccccn3)n2)cn1` [Compound I-16, 6′-methyl-N-(1-methyl-3-(pyridin-2-yl)-1H-pyrazol-4-yl)-[2,3′-bipyridine]-6-carboxamide] are 1.2 µM and 6.35 µM.
For the molecule `COc1cncc(-c2cccc(C(=O)Nc3cn(C)nc3-c3ccccn3)n2)c1` [Compound I-19, 5′-methoxy-N-(1-methyl-3-(pyridin-2-yl)-1H-pyrazol-4-yl)-[2,3′-bipyridine]-6-carboxamide], the EC50 came out at 5.63 µM in test [1] and 2.54 µM in test [2].
Molecule `CC(C)Oc1cncc(-c2cccc(C(=O)Nc3cn(C)nc3-c3ccccn3)n2)c1` [Compound I-22, 5′-isopropoxy-N-(1-methyl-3-(pyridin-2-yl)-1H-pyrazol-4-yl)-[2,3′-bipyridine]-6-carboxamide] returned an EC50 in test [1] of 8.56 µM.
Turning to `Cn1cc(NC(=O)c2cccc(-c3cncc(OC4CCOCC4)c3)n2)c(-c2ccccn2)n1` [Compound I-23, N-(1-methyl-3-(pyridin-2-yl)-1H-pyrazol-4-yl)-5′-((tetrahydro-2H-pyran-4-yl)oxy)-[2,3′-bipyridine]-6-carboxamide], the EC50 in test [1] is 1.79 µM; in test [2], 2.29 µM.
The like results for `Cn1cc(NC(=O)c2cccc(-c3cncc(N)c3)n2)c(-c2ccccn2)n1` [Compound I-25, 5′-amino-N-(1-methyl-3-(pyridin-2-yl)-1H-pyrazol-4-yl)-[2,3′-bipyridine]-6-carboxamide] were, in that order, 0.0347 µM and 0.169 µM.
The molecule `COCCNc1cncc(-c2cccc(C(=O)Nc3cn(C)nc3-c3ccccn3)n2)c1` [Compound I-31, 5′-((2-methoxyethyl)amino)-N-(1-methyl-3-(pyridin-2-yl)-1H-pyrazol-4-yl)-[2,3′-bipyridine]-6-carboxamide] yielded an EC50 in test [1] of 0.413 µM.
On the same count and under the same terms, the same measure for `Cn1cc(NC(=O)c2cccc(-c3cncc(C(N)=O)c3)n2)c(-c2ccccn2)n1` [Compound I-40, N6-(1-methyl-3-(pyridin-2-yl)-1H-pyrazol-4-yl)-[2,3′-bipyridine]-5′,6-dicarboxamide]: 2.99 µM; for `Cn1cc(NC(=O)c2cccc(-c3ccccc3)n2)c(-c2ccccn2)n1` [Compound I-48, N-(1-methyl-3-(pyridin-2-yl)-1H-pyrazol-4-yl)-6-phenylpicolinamide]: 9.16 µM; for `CC(C)Oc1cncc(-c2cccc(C(=O)Nc3cn(C4COC4)nc3-c3ccccn3)n2)c1` [Compound I-130, 5′-isopropoxy-N-(1-(oxetan-3-yl)-3-(pyridin-2-yl)-1H-pyrazol-4-yl)-[2,3′-bipyridine]-6-carboxamide]: 1.65 µM.
For the molecule `COCCOCCn1cc(NC(=O)c2cccc(Nc3cc(C)ncc3C)n2)c(-c2ccccn2)n1` [Compound I-157, 6-((2,5-dimethylpyridin-4-yl)amino)-N-(1-(2-(2-methoxyethoxy)ethyl)-3-(pyridin-2-yl)-1H-pyrazol-4-yl)picolinamide formate], in test [1], the EC50 turned out to be 10.9 µM.
Same read-out and setting: the same measure for `O=C(Nc1cn(C2CCOCC2)nc1-c1ccccn1)c1cccc(-c2ccncc2)n1` [Compound I-167, N-(3-(pyridin-2-yl)-1-(tetrahydro-2H-pyran-4-yl)-1H-pyrazol-4-yl)-[2,4′-bipyridine]-6-carboxamide]: 6.5 µM; for `Cn1cc(NC(=O)c2cccc(-c3cn[nH]c3)n2)c(-c2ccc(N3CCOCC3)cn2)n1` [Compound I-171, N-(1-methyl-3-(5-morpholinopyridin-2-yl)-1H-pyrazol-4-yl)-6-(1H-pyrazol-4-yl)picolinamide]: 2.38 µM.
On the same count and under the same terms, the same measure for `Cn1cc(NC(=O)c2cccc(-c3cc[nH]n3)n2)c(-c2ccc(N3CCOCC3)cn2)n1` [Compound I-172, N-(1-methyl-3-(5-morpholinopyridin-2-yl)-1H-pyrazol-4-yl)-6-(1H-pyrazol-3-yl)picolinamide]: 0.0468 µM.

These data come from patent US10947216B2, “Amide compounds and method for making and using” (Rigel Pharmaceuticals, Inc., priority 2016, dated 2021).
